Data taken from patent US10435399B2, “HDAC6 inhibitory heterocyclic compound” (TAKEDA PHARMACEUTICAL COMPANY LIMITED, priority 2017, dated 2019).

target: T1, HDAC6 enzyme (Homo sapiens, UniProt Q9UBN7); assay: HDAC6 enzyme inhibitory activity (HDAC-Glo I/II Assay kit); type: biochemical; details: 10 μM; wells without enzyme = 100% inhibition
T1 construct: transducing full length HDAC6 gene into Sf-9 insect cells; GST; purchased SignalChem; host or cells: Sf-9 insect cells
T1 sequence (Q9UBN7 1-1215): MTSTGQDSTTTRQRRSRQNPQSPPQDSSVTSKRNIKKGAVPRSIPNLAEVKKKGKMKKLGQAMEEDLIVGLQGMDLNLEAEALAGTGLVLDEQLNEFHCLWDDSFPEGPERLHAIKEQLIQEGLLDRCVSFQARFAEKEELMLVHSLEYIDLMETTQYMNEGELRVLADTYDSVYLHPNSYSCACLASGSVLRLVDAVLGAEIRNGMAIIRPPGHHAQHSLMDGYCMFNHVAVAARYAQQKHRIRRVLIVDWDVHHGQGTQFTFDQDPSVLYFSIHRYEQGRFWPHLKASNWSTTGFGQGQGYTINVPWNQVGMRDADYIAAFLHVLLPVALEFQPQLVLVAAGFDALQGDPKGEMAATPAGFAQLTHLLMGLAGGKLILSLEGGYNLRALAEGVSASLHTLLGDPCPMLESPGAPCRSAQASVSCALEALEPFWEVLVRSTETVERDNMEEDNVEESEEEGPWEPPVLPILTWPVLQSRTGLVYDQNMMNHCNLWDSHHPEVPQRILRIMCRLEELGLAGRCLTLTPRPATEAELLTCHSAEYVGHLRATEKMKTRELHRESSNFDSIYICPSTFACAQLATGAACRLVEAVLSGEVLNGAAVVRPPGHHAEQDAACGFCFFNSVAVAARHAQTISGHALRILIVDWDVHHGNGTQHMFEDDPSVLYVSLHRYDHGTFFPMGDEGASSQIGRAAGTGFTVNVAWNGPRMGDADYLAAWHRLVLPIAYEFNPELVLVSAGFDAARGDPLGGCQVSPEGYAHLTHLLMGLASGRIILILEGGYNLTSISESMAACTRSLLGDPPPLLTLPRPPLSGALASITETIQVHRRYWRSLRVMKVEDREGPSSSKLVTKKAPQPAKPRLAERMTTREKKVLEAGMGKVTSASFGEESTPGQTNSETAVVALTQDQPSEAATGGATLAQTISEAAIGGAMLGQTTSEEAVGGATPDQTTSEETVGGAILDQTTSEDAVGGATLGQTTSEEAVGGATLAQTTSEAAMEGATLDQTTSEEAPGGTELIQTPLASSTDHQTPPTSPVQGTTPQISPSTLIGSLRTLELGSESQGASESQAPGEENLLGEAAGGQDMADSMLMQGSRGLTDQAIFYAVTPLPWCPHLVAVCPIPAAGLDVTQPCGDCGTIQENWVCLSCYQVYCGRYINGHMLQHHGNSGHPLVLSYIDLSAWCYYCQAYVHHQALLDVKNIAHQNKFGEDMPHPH
Outline: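 Full-length human HDAC6 (GST-purified, Sf-9 expressed) preincubated with compound 60 min at room temperature in Tris-HCl pH 7.5 buffer with MgCl2, KCl, NaCl, glutathione, Tween-20. HDAC-Glo I/II substrate-developer then added, 20 min room temperature, luminescence read. Inhibition relative to no-enzyme wells as 100%.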

HDAC6 inhibitory rate (%) (10 μM) | SMILES
100 | O=C1c2cc(-c3nnc(C(F)F)o3)cnc2CN1[C@@H]1COCC[C@H]1Oc1ccc(F)cc1 [Example 633, 1,5-anhydro-2,4-dideoxy-2-(3-(5-(difluoromethyl)-1,3,4-oxadiazol-2-yl)-5-oxo-5,7-dihydro-6H-pyrrolo[3,4-b]pyridin-6-yl)-3-O-(4-fluorophenyl)-threo-pentitol (Optical Isomer)]

same assay, conditions: 10 μM; wells without enzyme = 100% inhibition; read-out: HDAC6 inhibitory rate (%) (10 μM)

inhibition at 10 µM [%] | SMILES
101 | O=C1c2cc(-c3nnc(C(F)F)o3)ccc2CN1[C@@H]1CCCC(F)(F)[C@@H]1NC(=O)C(F)(F)C(F)(F)F [Example 625, N-((1R,6R)-6-(6-(5-(difluoromethyl)-1,3,4-oxadiazol-2-yl)-1-oxo-1,3-dihydro-2H-isoindol-2-yl)-2,2-difluorocyclohexyl)-2,2,3,3,3-pentafluoropropanamide]
100 | CC(F)(F)C(=O)N[C@@H]1[C@H](N2Cc3ccc(-c4nnc(C(F)F)o4)cc3C2=O)CCCC1(F)F [Example 626, N-((1R,6R)-6-(6-(5-(difluoromethyl)-1,3,4-oxadiazol-2-yl)-1-oxo-1,3-dihydro-2H-isoindol-2-yl)-2,2-difluorocyclohexyl)-2,2-difluoropropanamide]
100 | COC(=O)N1CCC[C@@H](N2Cc3ccc(-c4nnc(C(F)F)o4)cc3C2=O)[C@H]1c1ccc(F)cc1 [Example 627, methyl (2R,3R)-3-(6-(5-(difluoromethyl)-1,3,4-oxadiazol-2-yl)-1-oxo-1,3-dihydro-2H-isoindol-2-yl)-2-(4-fluorophenyl)piperidine-1-carboxylate]
100 | O=C1c2cc(-c3nnc(C(F)F)o3)ccc2CN1[C@@H]1CCCC(F)(F)[C@@H]1NC(=O)C(F)(F)C(F)F [Example 628, N-((1R,6R)-6-(6-(5-(difluoromethyl)-1,3,4-oxadiazol-2-yl)-1-oxo-1,3-dihydro-2H-isoindol-2-yl)-2,2-difluorocyclohexyl)-2,2,3,3-tetrafluoropropanamide]
100 | O=C(N[C@@H]1[C@H](N2Cc3ccc(-c4nnc(C(F)F)o4)cc3C2=O)CCCC1(F)F)C(F)F [Example 629, N-((1R,6R)-6-(6-(5-(difluoromethyl)-1,3,4-oxadiazol-2-yl)-1-oxo-1,3-dihydro-2H-isoindol-2-yl)-2,2-difluorocyclohexyl)-2,2-difluoroacetamide]
100 | Cc1ccc(C2CCCCN2N2Cc3ccc(-c4nnc(C(F)F)o4)cc3C2=O)cn1 (stereo not shown) [Example 630, 6-(5-(difluoromethyl)-1,3,4-oxadiazol-2-yl)-2-(2-(6-methylpyridin-3-yl)piperidin-1-yl)isoindolin-1-one]
99 | Cn1cc(C(C)(C)O)c(N2Cc3ccc(-c4nnc(C(F)F)o4)cc3C2=O)n1 [Example 631, 6-(5-(difluoromethyl)-1,3,4-oxadiazol-2-yl)-2-(4-(2-hydroxypropan-2-yl)-1-methyl-1H-pyraozl-3-yl)isoindolin-1-one]
99 | O=C1c2cc(-c3nnc(C(F)F)o3)cnc2CN1[C@@H]1COCC[C@H]1Oc1ccc(F)cc1 [Example 632, 1,5-anhydro-2,4-dideoxy-2-(3-(5-(difluoromethyl)-1,3,4-oxadiazol-2-yl)-5-oxo-5,7-dihydro-6H-pyrrolo[3,4-b]pyridin-6-yl)-3-O-(4-fluorophenyl)-threo-pentitol]
99 | CC(C)(C)OC(=O)N[C@@H]1CCC(F)(F)C[C@H]1N1Cc2ccc(-c3nnc(C(F)F)o3)cc2C1=O [Example 634, tert-butyl ((1R,2R)-2-(6-(5-(difluoromethyl)-1,3,4-oxadiazol-2-yl)-1-oxo-1,3-dihydro-2H-isoindol-2-yl)-4,4-difluorocyclohexyl)carbamate]
99 | O=C1c2cc(-c3nnc(C(F)F)o3)ccc2CN1[C@@H]1CC(F)(F)CC[C@H]1NC(=O)C(F)(F)C(F)(F)F [Example 635, N-((1R,2R)-2-(6-(5-(difluoromethyl)-1,3,4-oxadiazol-2-yl)-1-oxo-1,3-dihydro-2H-isoindol-2-yl)-4,4-difluorocyclohexyl)-2,2,3,3,3-pentafluoropropanamide]
100 | O=C1c2cc(-c3nnc(C(F)F)o3)ccc2CN1[C@@H]1CC(F)(F)CC[C@H]1NC(=O)C(F)(F)C(F)F [Example 636, N-((1R,2R)-2-(6-(5-(difluoromethyl)-1,3,4-oxadiazol-2-yl)-1-oxo-1,3-dihydro-2H-isoindol-2-yl)-4,4-difluorocyclohexyl)-2,2,3,3-tetrafluoropropanamide]
100 | CC(F)(F)C(=O)N[C@@H]1CCC(F)(F)C[C@H]1N1Cc2ccc(-c3nnc(C(F)F)o3)cc2C1=O [Example 637, N-((1R,2R)-2-(6-(5-(difluoromethyl)-1,3,4-oxadiazol-2-yl)-1-oxo-1,3-dihydro-2H-isoindol-2-yl)-4,4-difluorocyclohexyl)-2,2-difluoropropanamide]
93 | N[C@@H]1CCC(F)(F)C[C@H]1N1Cc2ncc(-c3nnc(C(F)F)o3)cc2C1=O [Example 638, 6-((1R,2R)-2-amino-5,5-difluorocyclohexyl)-3-(5-(difluoromethyl)-1,3,4-oxadiazol-2-yl)-6,7-dihydro-5H-pyrrollo[3,4-b]pyridin-5-one]
100 | CC(F)(F)C(=O)N[C@@H]1CC(F)(F)CC[C@H]1N1Cc2ncc(-c3nnc(C(F)F)o3)cc2C1=O [Example 639, N-((1R,2R)-2-(3-(5-(difluoromethyl)-1,3,4-oxadiazol-2-yl)-5-oxo-5,7-dihydro-6H-pyrrolo[3,4-b]pyridin-6-yl)-5,5-difluorocyclohexyl)-2,2-difluoropropanamide]
100 | O=C1c2cc(-c3nnc(C(F)F)o3)cnc2CN1[C@@H]1CCC(F)(F)C[C@H]1NC(=O)C(F)(F)C(F)(F)F [Example 640, N-((1R,2R)-2-(3-(5-(difluoromethyl)-1,3,4-oxadiazol-2-yl)-5-oxo-5,7-dihydro-6H-pyrrolo[3,4-b]pyridin-6-yl)-5,5-difluorocyclohexyl)-2,2,3,3,3-pentafluoropropanamide]
99 | O=C1c2cc(-c3nnc(C(F)F)o3)cnc2CN1[C@@H]1CCC(F)(F)C[C@H]1NC(=O)C(F)(F)C(F)F [Example 641, N-((1R,2R)-2-(3-(5-(difluoromethyl)-1,3,4-oxadiazol-2-yl)-5-oxo-5,7-dihydro-6H-pyrrolo[3,4-b]pyridin-6-yl)-5,5-difluorocyclohexyl)-2,2,3,3-tetrafluoropropanamide]
100 | O=C1c2cc(-c3nnc(C(F)F)o3)cnc2CN1[C@@H]1CC(F)(F)CC[C@H]1NC(=O)C(F)(F)C(F)(F)F [Example 642, N-((1R,2R)-2-(3-(5-(difluoromethyl)-1,3,4-oxadiazol-2-yl)-5-oxo-5,7-dihydro-6H-pyrrolo[3,4-b]pyridin-6-yl)-4,4-difluorocyclohexyl)-2,2,3,3,3-pentafluoropropanamide]
100 | CC(F)(F)C(=O)N[C@@H]1CCC(F)(F)C[C@H]1N1Cc2ncc(-c3nnc(C(F)F)o3)cc2C1=O [Example 643]
99 | O=C1c2cc(-c3nnc(C(F)F)o3)cnc2CN1[C@@H]1CC(F)(F)CC[C@H]1NC(=O)C(F)(F)C(F)F [Example 644, N-((1R,2R)-2-(3-(5-(difluoromethyl)-1,3,4-oxadiazol-2-yl)-5-oxo-5,7-dihydro-6H-pyrrolo[3,4-b]pyridin-6-yl)-4,4-difluorocyclohexyl)-2,2,3,3-tetrafluoropropanamide]
99 | CCN(CC)C(=O)C1CC(F)(F)CCN1N1Cc2ccc(-c3nnc(C(F)F)o3)cc2C1=O (stereo not shown) [Example 645, 1-(6-(5-(difluoromethyl)-1,3,4-oxadiazol-2-yl)-1-oxo-1,3-dihydro-2H-isoindol-2-yl)-N,N-diethyl-4,4-difluoropiperidine-2-carboxamide]
99 | O=C1c2cc(-c3nnc(C(F)F)o3)cnc2CN1[C@@H]1COCC[C@H]1Oc1ccc(F)c(F)c1 [Example 646, 1,5-anhydro-2,4-dideoxy-2-(3-(5-(difluoromethyl)-1,3,4-oxadiazol-2-yl)-5-oxo-5,7-dihydro-6H-pyrrolo[3,4-b]pyridin-6-yl)-3-O-(3,4-difluorophenyl)-threo-pentitol]
